The source made the active and inactive calls. How the calls were made is not given here.
Target: alkaline phosphatase, placental type (human)
Experiment: inhibitors of placental alkaline phosphatase – biochemical, human PLAP isozyme, set 2, selectivity assay for mouse IAP inhibitor project, SAR follow-up (AID 588641)
Settings: purified human placental alkaline phosphatase, enzyme activity

| Compound | IC50 |
| --- | --- |
| CC(C)c1ccc(NC(=O)CCNS(=O)(=O)c2ccc3c(c2)oc(=O)n3C)cc1 | > 100 µM (inactive) |
| O=C(CCNS(=O)(=O)c1ccc2ccccc2c1)NCCc1ccc2c(c1)OCO2 | > 100 µM (inactive) |
| O=C(NCc1ccc2c(c1)OCO2)C1CCCN(S(=O)(=O)c2ccc3[nH]c(=O)oc3c2)C1 (stereo not given) | > 100 µM (inactive) |
| O=C(CCNS(=O)(=O)c1ccc2[nH]c(=O)oc2c1)NCc1ccccc1F | > 100 µM (inactive) |
| COc1ccc(CNC(=O)CNS(=O)(=O)c2ccc3[nH]c(=O)oc3c2)c(OC)c1 | > 100 µM (inactive) |
| COc1ccc(CNS(=O)(=O)c2ccc3[nH]c(=O)oc3c2)c(OC)c1 | > 100 µM (inactive) |
| Cc1ccc(CNC(=O)CCNS(=O)(=O)c2ccc3[nH]c(=O)oc3c2)cc1 | > 100 µM (inactive) |
| COc1ccc(CNC(=O)CCCNS(=O)(=O)c2ccc3[nH]c(=O)oc3c2)cc1OC | > 100 µM (inactive) |
| CCc1ccc(NC(=O)C2CCCN(S(=O)(=O)c3ccc4c(c3)oc(=O)n4C)C2)cc1 (stereo not given) | > 100 µM (inactive) |
| Cc1ccc(NC(=O)CCNS(=O)(=O)c2ccc3c(c2)oc(=O)n3C)c(C)c1 | > 100 µM (inactive) |
| O=C(N/N=C/c1c(F)cccc1F)c1ccc(O)cc1 | > 100 µM (inactive) |
| CN(C)c1ccc(CNC(=O)C2CCCN(S(=O)(=O)c3ccc4[nH]c(=O)oc4c3)C2)cc1 (stereo not given) | > 100 µM (inactive) |
| O=C(NCc1ccccc1)C1CCCN(S(=O)(=O)c2ccc3[nH]c(=O)oc3c2)C1 (stereo not given) | > 100 µM (inactive) |
| O=C(N/N=C/c1cc(Br)ccc1F)c1ccc(O)cc1 | > 100 µM (inactive) |
| COc1ccc(/C=N/NC(=O)c2cc(O)c(O)c(O)c2)cc1OC | > 100 µM (inactive) |
| COc1ccc(NC(=O)CCCNS(=O)(=O)c2ccc3[nH]c(=O)oc3c2)cc1OC | > 100 µM (inactive) |
| O=C(CCNS(=O)(=O)c1ccc2[nH]c(=O)oc2c1)NCc1ccccc1Cl | > 100 µM (inactive) |
| Cc1ccc(C)c(NC(=O)CNS(=O)(=O)c2ccc3[nH]c(=O)oc3c2)c1 | > 100 µM (inactive) |
| O=C(CCNS(=O)(=O)c1ccc2[nH]c(=O)oc2c1)NCc1ccc(C(F)(F)F)cc1 | > 100 µM (inactive) |
| O=C(CCNS(=O)(=O)c1ccc2[nH]c(=O)oc2c1)NCc1ccc(F)cc1 | > 100 µM (inactive) |
| COc1ccccc1CNC(=O)CCCNS(=O)(=O)c1ccc2[nH]c(=O)oc2c1 | > 100 µM (inactive) |
| COc1ccc(NS(=O)(=O)c2ccc3[nH]c(=O)oc3c2)cc1OC | > 100 µM (inactive) |
| N#Cc1cccc(CNC(=O)CCNS(=O)(=O)c2ccc3[nH]c(=O)oc3c2)c1 | > 100 µM (inactive) |

| Compound | IC50 |
| --- | --- |
| N#Cc1cccc(NC(=O)CNS(=O)(=O)c2ccc3[nH]c(=O)oc3c2)c1 | > 100 µM (inactive) |
| CCc1ccc(NC(=O)CCNS(=O)(=O)c2ccc3c(c2)oc(=O)n3C)cc1 | > 100 µM (inactive) |
| COc1ccc(/C=N\NC(=O)c2cc(O)c(O)c(O)c2)cc1CN1CCN(c2ccc(F)cc2)CC1 | > 100 µM (inactive) |
| Cc1ccccc1CNC(=O)C1CCCN(S(=O)(=O)c2ccc3[nH]c(=O)oc3c2)C1 (stereo not given) | > 100 µM (inactive) |
| O=C(CCNS(=O)(=O)c1ccc2[nH]c(=O)oc2c1)Nc1ccc2c(c1)OCO2 | > 100 µM (inactive) |
| O=C(CCNS(=O)(=O)c1ccc2[nH]c(=O)oc2c1)NCCc1ccc2c(c1)OCO2 | > 100 µM (inactive) |
| COc1ccc(NC(=O)CCNS(=O)(=O)c2ccc3c(c2)CCC3)cc1OC | > 100 µM (inactive) |
| CC(C)(C)c1ccc(/C=N/NC(=O)c2cc(O)c(O)c(O)c2)cc1 | 60.8 µM |
| O=C(CCNS(=O)(=O)c1ccc2[nH]c(=O)oc2c1)NCc1ccc(Cl)cc1 | > 100 µM (inactive) |
| CSc1cccc(NC(=O)CCNS(=O)(=O)c2ccc3c(c2)oc(=O)n3C)c1 | > 100 µM (inactive) |
| CC(C)c1ccc(/C=N/NC(=O)c2cc(O)c(O)c(O)c2)cc1 | > 100 µM (inactive) |
| Cc1ccc(NC(=O)CCNS(=O)(=O)c2ccc3c(c2)oc(=O)n3C)cc1 | > 100 µM (inactive) |
| O=C(CCS(=O)(=O)Nc1ccc2[nH]c(=O)oc2c1)NCc1cccc(F)c1 | > 100 µM (inactive) |
| COc1cccc(CNS(=O)(=O)c2ccc3[nH]c(=O)oc3c2)c1 | > 100 µM (inactive) |
| COc1ccc(OC)c(NC(=O)C2CCCN(S(=O)(=O)c3ccc4c(c3)oc(=O)n4C)C2)c1 (stereo not given) | > 100 µM (inactive) |
| Cc1ccc(C)c(NS(=O)(=O)c2ccc3[nH]c(=O)oc3c2)c1 | > 100 µM (inactive) |
| COc1ccc(CNC(=O)CCNS(=O)(=O)c2ccc3c(c2)CCC3)c(OC)c1 | > 100 µM (inactive) |
| COc1ccc(C(=O)N/N=C/c2c(F)cccc2Cl)cc1OC | > 100 µM (inactive) |
| O=C(CCNS(=O)(=O)c1ccc2[nH]c(=O)oc2c1)NCc1ccc(O)c(O)c1 | > 100 µM (inactive) |
| COc1ccc(OC)c(NC(=O)CCNS(=O)(=O)c2ccc3c(c2)oc(=O)n3C)c1 | > 100 µM (inactive) |
| CC(=NNC(=O)c1ccccc1OCCOc1ccccc1)c1ccccc1F | > 100 µM (inactive) |
| O=C(CCNS(=O)(=O)c1ccc2c(c1)CCC2)NCCc1ccc2c(c1)OCO2 | > 100 µM (inactive) |
| COc1cccc(C(=O)N/N=C/c2ccccc2F)c1 | > 100 µM (inactive) |

| Compound | IC50 |
| --- | --- |
| CSc1cccc(NC(=O)C2CCCN(S(=O)(=O)c3ccc4c(c3)oc(=O)n4C)C2)c1 (stereo not given) | > 100 µM (inactive) |
| COc1ccc(CNC(=O)CCNS(=O)(=O)c2ccc3[nH]c(=O)oc3c2)cc1 | > 100 µM (inactive) |
| N#Cc1cccc(NS(=O)(=O)c2ccc3[nH]c(=O)oc3c2)c1 | > 100 µM (inactive) |
| Cc1ccc(C)c(NC(=O)CCNS(=O)(=O)c2ccc3c(c2)CCC3)c1 | > 100 µM (inactive) |
| COc1ccc(CNC(=O)CNS(=O)(=O)c2ccc3[nH]c(=O)oc3c2)cc1 | > 100 µM (inactive) |
| CCOc1cc(C(=O)N/N=C/c2c(F)cccc2Cl)cc(OCC)c1OCC | > 100 µM (inactive) |
| COc1cccc(CNC(=O)CNS(=O)(=O)c2ccc3[nH]c(=O)oc3c2)c1 | > 100 µM (inactive) |
| COc1ccc(NC(=O)CCCNS(=O)(=O)c2ccc3[nH]c(=O)oc3c2)c(OC)c1 | > 100 µM (inactive) |
| Cc1ccc(C)c(NC(=O)CCNS(=O)(=O)c2ccc3ccccc3c2)c1 | > 100 µM (inactive) |
| O=C(CCCNS(=O)(=O)c1ccc2[nH]c(=O)oc2c1)NCc1ccc2c(c1)OCO2 | > 100 µM (inactive) |
| N#Cc1ccc(NC(=O)CNS(=O)(=O)c2ccc3[nH]c(=O)oc3c2)cc1 | > 100 µM (inactive) |
| Cc1ccc(C)c(CNC(=O)C2CCCN(S(=O)(=O)c3ccc4[nH]c(=O)oc4c3)C2)c1 (stereo not given) | > 100 µM (inactive) |
| COc1cc(/C=N/NC(=O)c2cc(O)c(O)c(O)c2)ccc1O | > 100 µM (inactive) |
| COc1ccc(CNC(=O)C2CCCN(S(=O)(=O)c3ccc4[nH]c(=O)oc4c3)C2)cc1 (stereo not given) | > 100 µM (inactive) |
| O=c1[nH]c2ccc(S(=O)(=O)Nc3ccc4c(c3)OCO4)cc2o1 | > 100 µM (inactive) |
| O=C(NCc1ccc(F)cc1)C1CCCN(S(=O)(=O)c2ccc3[nH]c(=O)oc3c2)C1 (stereo not given) | > 100 µM (inactive) |
| O=C(CCNS(=O)(=O)c1ccc2[nH]c(=O)oc2c1)NCCc1ccc(O)cc1 | > 100 µM (inactive) |
| COc1ccc(CNC(=O)CCNS(=O)(=O)c2ccc3[nH]c(=O)oc3c2)c(OC)c1 | > 100 µM (inactive) |
| O=C(N/N=C/c1c(F)cccc1Cl)c1cc(O)c(O)c(O)c1 | > 100 µM (inactive) |
| O=C(CCCNS(=O)(=O)c1ccc2[nH]c(=O)oc2c1)NCCc1ccc(O)cc1 | > 100 µM (inactive) |
| O=C(CNS(=O)(=O)c1ccc2[nH]c(=O)oc2c1)NCCc1ccc2c(c1)OCO2 | > 100 µM (inactive) |
| O=C(N/N=C/c1c(F)cccc1Cl)c1ccc(O)cc1 | > 100 µM (inactive) |
| COc1ccc(/C=N/NC(=O)c2cc(O)c(O)c(O)c2)c(OC)c1 | > 100 µM (inactive) |

| Compound | IC50 |
| --- | --- |
| O=C(N/N=C/c1cccc(Cl)c1Cl)c1cc(O)c(O)c(O)c1 | > 100 µM (inactive) |
| O=C(N/N=C/c1ccc(F)cc1F)c1ccc(O)cc1 | > 100 µM (inactive) |
| O=C(N/N=C/c1c(F)cccc1Cl)c1ccc(O)cc1O | > 100 µM (inactive) |
| O=C(CCCNS(=O)(=O)c1ccc2[nH]c(=O)oc2c1)NCc1ccccc1Cl | > 100 µM (inactive) |
| O=c1[nH]c2ccc(S(=O)(=O)NCCc3ccc4c(c3)OCO4)cc2o1 | > 100 µM (inactive) |
| O=C(CCNS(=O)(=O)c1ccc2[nH]c(=O)oc2c1)NCc1ccc2c(c1)OCO2 | > 100 µM (inactive) |
| Cc1cc(NC(=O)CCNS(=O)(=O)c2ccc3[nH]c(=O)oc3c2)ccc1Br | > 100 µM (inactive) |
| COc1ccc(CNC(=O)CCCNS(=O)(=O)c2ccc3[nH]c(=O)oc3c2)c(OC)c1 | > 100 µM (inactive) |
| COc1ccc(CCNC(=O)CCCNS(=O)(=O)c2ccc3[nH]c(=O)oc3c2)cc1 | > 100 µM (inactive) |
| O=C(CCNS(=O)(=O)c1ccc2[nH]c(=O)oc2c1)NCc1cccc(Cl)c1 | > 100 µM (inactive) |
| Cc1ccc(C)c(NC(=O)C2CCCN(S(=O)(=O)c3ccc4c(c3)oc(=O)n4C)C2)c1 (stereo not given) | > 100 µM (inactive) |
| O=C(N/N=C/c1ccccc1F)c1ccccc1OCc1ccccc1 | > 100 µM (inactive) |
| Cc1ccc(CNC(=O)C2CCCN(S(=O)(=O)c3ccc4[nH]c(=O)oc4c3)C2)cc1 (stereo not given) | > 100 µM (inactive) |
| COc1ccccc1CNC(=O)CCNS(=O)(=O)c1ccc2[nH]c(=O)oc2c1 | > 100 µM (inactive) |
| O=C(N/N=C/c1ccccc1F)c1ccc(O)cc1O | > 100 µM (inactive) |
| O=C(CCNS(=O)(=O)c1ccc2[nH]c(=O)oc2c1)NCc1cccc(C(F)(F)F)c1 | > 100 µM (inactive) |
| COc1cccc(CNC(=O)CCNS(=O)(=O)c2ccc3[nH]c(=O)oc3c2)c1 | > 100 µM (inactive) |
| O=C(CCNS(=O)(=O)c1ccc2[nH]c(=O)oc2c1)NCc1ccccc1 | > 100 µM (inactive) |
| COc1cccc(/C=N/NC(=O)c2cc(O)c(O)c(O)c2)c1O | > 100 µM (inactive) |
| CC(C)c1ccc(NC(=O)C2CCCN(S(=O)(=O)c3ccc4c(c3)oc(=O)n4C)C2)cc1 (stereo not given) | > 100 µM (inactive) |
| O=c1[nH]c2ccc(S(=O)(=O)NCc3ccc4c(c3)OCO4)cc2o1 | > 100 µM (inactive) |

From PubChem BioAssay AID588641 (Sanford-Burnham Center for Chemical Genomics, 2011)
